Laboratory results published in publication PMC5672931 (British Journal of Cancer, 2017).
Where “and” joins values, the source holds several entries; their conditions need not be identical. Equal entries are not always repeated.

Columns and labels:
[1] = tested on: advanced malignancies; test: anti-tumour activity, RECIST v. 1.0; type: in vivo, human; details: parts 1 and 2; extending to 30 cycles
[2] = tested on: patients with solid tumours; details: weekly study; ref Nemunaitis et al, 2013; cited from earlier work
[3] = tested on: patients with advanced malignancies; test: safety and tolerability: adverse events; type: in vivo, human; details: for Diarrhoea / Fatigue / Nausea / Neutropenia / Vomiting / Abdominal pain / Alopecia / Anaemia / Decreased appetite / Dehydration / Dizziness / Febrile neutropenia / Headache / Hyperbilirubinemia / Hyperglycaemia / Hyperuricemia / Hypotension / Increased ALT / Increased AST / Increased alkaline phosphatase / Leukopenia / Pancytopenia / Thrombocytopenia / Bacterial sepsis: treatment-related
[4] = tested on: CDK12; details: ref Johnson et al, 2016; cited from earlier work
[5] = 2-h infusion at RP2D 50 mg m^−2, fifteen patients, all grades
[6] = 8- and 24-h infusion n=26, all grades
[7] = 8- and 24-h infusion n=26, grade 3–4
[8] = 8-h infusions, 16 patients, all grades
[9] = 8-h infusions, 16 patients, grade 3 or 4
[10] = 24-h infusions, 10 patients, all grades

Q: Which results are given for CCc1cnn2c(NCc3ccc[n+]([O-])c3)cc(N3CCCC[C@H]3CCO)nc12 [dinaciclib, Dinaciclib]?
A: patients with stable disease for at least six treatment cycles [1]: eight; subjects with grade ⩾3 neutropenia [2]: 10%; deaths before study treatment was discontinued ([3]; one of gram-negative sepsis (29.6 mg m^−2, part 1), others related to progressive disease): Eight; SAE bacterial sepsis ([3]; part 1): 2 (6%) n (%); SAE febrile neutropenia ([3]; part 1): 2 (6%) n (%); SAE hyperbilirubinemia ([3]; part 1): 3 (8%) n (%); SAE hypotension ([3]; part 1): 3 (8%) n (%); SAE increased AST ([3]; part 1): 2 (6%) n (%); SAE neutropenia ([3]; part 1): 4 (11%) n (%); SAE febrile neutropenia ([3]; part 2): 2 (8%) n (%); SAE hypotension ([3]; part 2): 3 (12%) n (%); SAE neutropenia ([3]; part 2): 2 (8%) n (%); patients with serious AEs (SAEs) ([3]; part 2 (8- and 24-h infusions)): 10 (38%) n (%); Diarrhoea [3, 5]: 8 (53%) n (%); Fatigue [3, 5]: 9 (60%) n (%); Nausea [3, 5]: 12 (80%) n (%); Neutropenia [3, 5]: 9 (60%) n (%); Vomiting [3, 5]: 11 (73%) n (%); Abdominal pain ([3]; 2-h infusion n=35, all grades): 2 (6) n (%); Alopecia ([3]; 2-h infusion n=35, all grades): 4 (11) n (%); Anaemia ([3]; 2-h infusion n=35, all grades): 4 (11) n (%); Decreased appetite ([3]; 2-h infusion n=35, all grades): 5 (14) n (%); Dehydration ([3]; 2-h infusion n=35, all grades): 3 (9) n (%); Diarrhoea ([3]; 2-h infusion n=35, all grades): 16 (46%) n (%) and 16 (46) n (%); Dizziness ([3]; 2-h infusion n=35, all grades): 3 (9) n (%); Fatigue ([3]; 2-h infusion n=35, all grades): 13 (37%) n (%) and 13 (37) n (%); Febrile neutropenia ([3]; 2-h infusion n=35, all grades): 2 (6) n (%); Headache ([3]; 2-h infusion n=35, all grades): 4 (11) n (%); Hyperbilirubinemia ([3]; 2-h infusion n=35, all grades): 3 (9) n (%); Hyperglycaemia ([3]; 2-h infusion n=35, all grades): 1 (3) n (%); Hyperuricemia ([3]; 2-h infusion n=35, all grades): 2 (6) n (%); Hypotension ([3]; 2-h infusion n=35, all grades): 3 (9) n (%); Increased ALT ([3]; 2-h infusion n=35, all grades): 4 (11) n (%); Increased AST ([3]; 2-h infusion n=35, all grades): 6 (17) n (%); Increased alkaline phosphatase ([3]; 2-h infusion n=35, all grades): 1 (3) n (%); Leukopenia ([3]; 2-h infusion n=35, all grades): 8 (23) n (%); Nausea ([3]; 2-h infusion n=35, all grades): 23 (66%) n (%) and 23 (66) n (%); Neutropenia ([3]; 2-h infusion n=35, all grades): 18 (51%) n (%) and 18 (51) n (%); Pancytopenia ([3]; 2-h infusion n=35, all grades): 1 (3) n (%); Thrombocytopenia ([3]; 2-h infusion n=35, all grades): 1 (3) n (%); Vomiting ([3]; 2-h infusion n=35, all grades): 23 (66%) n (%) and 23 (66) n (%); Abdominal pain ([3]; 2-h infusion n=35, grade 3–4): 0 n (%); Alopecia ([3]; 2-h infusion n=35, grade 3–4): 0 n (%); Anaemia ([3]; 2-h infusion n=35, grade 3–4): 0 n (%); Decreased appetite ([3]; 2-h infusion n=35, grade 3–4): 0 n (%); Dehydration ([3]; 2-h infusion n=35, grade 3–4): 1 (3) n (%); Diarrhoea ([3]; 2-h infusion n=35, grade 3–4): 0 n (%); Dizziness ([3]; 2-h infusion n=35, grade 3–4): 0 n (%); Fatigue ([3]; 2-h infusion n=35, grade 3–4): 0 n (%); Febrile neutropenia ([3]; 2-h infusion n=35, grade 3–4): 2 (6%) n (%) and 2 (6) n (%); Headache ([3]; 2-h infusion n=35, grade 3–4): 0 n (%); Hyperbilirubinemia ([3]; 2-h infusion n=35, grade 3–4): 0 n (%); Hyperglycaemia ([3]; 2-h infusion n=35, grade 3–4): 1 (3) n (%); Hyperuricemia ([3]; 2-h infusion n=35, grade 3–4): 2 (6%) n (%) and 2 (6) n (%); Hypotension ([3]; 2-h infusion n=35, grade 3–4): 1 (3) n (%); Increased ALT ([3]; 2-h infusion n=35, grade 3–4): 2 (6%) n (%) and 2 (6) n (%); Increased AST ([3]; 2-h infusion n=35, grade 3–4): 3 (9%) n (%) and 3 (9) n (%); Increased alkaline phosphatase ([3]; 2-h infusion n=35, grade 3–4): 1 (3) n (%); Leukopenia ([3]; 2-h infusion n=35, grade 3–4): 6 (17%) n (%) and 6 (17) n (%); Nausea ([3]; 2-h infusion n=35, grade 3–4): 0 n (%); Neutropenia ([3]; 2-h infusion n=35, grade 3–4): 16 (46%) n (%) and 16 (46) n (%); Pancytopenia ([3]; 2-h infusion n=35, grade 3–4): 1 (3) n (%); Thrombocytopenia ([3]; 2-h infusion n=35, grade 3–4): 1 (3) n (%); Vomiting ([3]; 2-h infusion n=35, grade 3–4): 1 (3) n (%); Abdominal pain [3, 6]: 1 (4) n (%); Alopecia [3, 6]: 2 (8) n (%); Anaemia [3, 6]: 3 (12) n (%); Bacterial sepsis [3, 6]: 1 (4) n (%); Decreased appetite [3, 6]: 2 (8) n (%); Dehydration [3, 6]: 2 (8) n (%); Diarrhoea [3, 6]: 7 (27) n (%); Dizziness [3, 6]: 2 (8) n (%); Fatigue [3, 6]: 10 (38) n (%); Febrile neutropenia [3, 6]: 2 (8) n (%); Headache [3, 6]: 0 n (%); Hyperbilirubinemia [3, 6]: 1 (4) n (%); Hyperglycaemia [3, 6]: 0 n (%); Hyperuricemia [3, 6]: 0 n (%); Hypotension [3, 6]: 5 (19) n (%); Increased ALT [3, 6]: 1 (4) n (%); Increased AST [3, 6]: 2 (8) n (%); Increased alkaline phosphatase [3, 6]: 3 (12) n (%); Leukopenia [3, 6]: 0 n (%); Nausea [3, 6]: 9 (35) n (%); Neutropenia [3, 6]: 7 (27) n (%); Pancytopenia [3, 6]: 0 n (%); Thrombocytopenia [3, 6]: 1 (4) n (%); Vomiting [3, 6]: 7 (27) n (%); Abdominal pain [3, 7]: 1 (4) n (%); Alopecia [3, 7]: 0 n (%); Anaemia [3, 7]: 0 n (%); Bacterial sepsis [3, 7]: 1 (4) n (%); Decreased appetite [3, 7]: 0 n (%); Dehydration [3, 7]: 0 n (%); Diarrhoea [3, 7]: 0 n (%); Dizziness [3, 7]: 0 n (%); Fatigue [3, 7]: 2 (8) n (%); Febrile neutropenia [3, 7]: 2 (8) n (%); Headache [3, 7]: 0 n (%); Hyperbilirubinemia [3, 7]: 1 (4) n (%); Hyperglycaemia [3, 7]: 0 n (%); Hyperuricemia [3, 7]: 0 n (%); Hypotension [3, 7]: 2 (8) n (%); Increased ALT [3, 7]: 0 n (%); Increased AST [3, 7]: 1 (4) n (%); Increased alkaline phosphatase [3, 7]: 2 (8) n (%); Leukopenia [3, 7]: 0 n (%); Nausea [3, 7]: 0 n (%); Neutropenia [3, 7]: 6 (23) n (%); Pancytopenia [3, 7]: 0 n (%); Thrombocytopenia [3, 7]: 0 n (%); Vomiting [3, 7]: 0 n (%); Diarrhoea [3, 8]: 7 (44%) n (%); Fatigue [3, 8]: 8 (50%) n (%); Nausea [3, 8]: 7 (44%) n (%); Neutropenia [3, 8]: 7 (44%) n (%); Vomiting [3, 8]: 6 (38%) n (%); Febrile neutropenia [3, 9]: 2 (13%) n (%); Hypotension [3, 9]: 2 (13%) n (%); Neutropenia [3, 9]: 6 (38%) n (%); Fatigue [3, 10]: 2 (20%) n (%); Increased AST [3, 10]: 2 (20%) n (%); Increased alkaline phosphatase [3, 10]: 2 (20%) n (%); Nausea [3, 10]: 2 (20%) n (%); Fatigue ([3]; 24-h infusions, 10 patients, grade 3 or 4): 2 (20%) n (%); CDK12 inhibition [4]: CDK12 inhibition by dinaciclib has also been demonstrated
